From patent US6358885B1, “Substituted phenylheterocyclic herbicides” (Mississippi State University, priority 1992, dated 2002)

Assays:
Experiment in all cases: Test G preemergence/postemergence greenhouse plant response rating 0 to 100
common purslane = assay type: in vivo, Portulaca oleracea; details: 0 to 100 scale
Description: (§1) Seeds, rhizomes, or plant parts of alfalfa (Medicago ativa), annual bluegrass (Poa annua), bermudagrass (Cynodon dactylon), broadleaf signalgrass (Brachiaria plantaginea), common purslane (Portulaca oleracea), common ragweed (Ambrosia elatior), […] (Paspalum dilatatum), goosegrass (Eleusine indica), guineagrass (Panicum maximum), […] exaltata), johnsongrass (Sorghum halepense), large crabgrass (Digitaria sanguinalis), peanut (Arachis hypoagaea), pitted morningglory (Ipomoea lacunosa), purple nutsedge (Cyperus rotundus), sandbur (Cenchrus echinatus), smooth crabgrass (Digitaria ischaemum) and yellow nutsedge (Cyperus esculentus) were planted into greenhouse pots containing greenhouse planting medium. Each pot contained only one plant species. The test compound was dissolved in a non-phytotoxic solvent and applied preemergence and/or postemergence to the plants. Preemergence applications were made within one day of planting the seeds or plant parts. Postemergence applications were applied when the plants were in the two to four leaf stage (three to twenty cm). Test chemicals were dissolved in a non-phytotoxic solvent and applied preemergence and postemergence to the plants. Untreated control plants and treated plants were placed in the greenhouse and visually evaluated for injury at 13 to 21 days after herbicide application. […] A dash (-) response indicates no test result.

purple nutsedge = assay type: in vivo, Cyperus rotundus; details: Rate 125 g/ha, 0 to 100 scale
Description: as §1

alfalfa = assay type: in vivo, Medicago ativa; details: 0 to 100 scale
Description: as §1

johnsongrass = assay type: in vivo, Sorghum halepense; details: 0 to 100 scale
Description: as §1

smooth crabgrass = assay type: in vivo, Digitaria ischaemum; details: 0 to 100 scale
Description: as §1

common ragweed = assay type: in vivo, Ambrosia elatior; details: 0 to 100 scale
Description: as §1

yellow nutsedge = assay type: in vivo, Cyperus esculentus; details: Rate 125 g/ha, 0 to 100 scale
Description: as §1

broadleaf signalgrass = assay type: in vivo, Brachiaria plantaginea; details: 0 to 100 scale
Description: as §1

peanut = assay type: in vivo, Arachis hypoagaea; details: 0 to 100 scale
Description: as §1

goosegrass = assay type: in vivo, Eleusine indica; details: 0 to 100 scale
Description: as §1

annual bluegrass = assay type: in vivo, Poa annua; details: 0 to 100 scale
Description: as §1

sandbur = assay type: in vivo, Cenchrus echinatus; details: 0 to 100 scale
Description: as §1

dallisgrass = assay type: in vivo, Paspalum dilatatum; details: 0 to 100 scale
Description: as §1

pitted morningglory = assay type: in vivo, Ipomoea lacunosa; details: 0 to 100 scale
Description: as §1

guineagrass = assay type: in vivo, Panicum maximum; details: 0 to 100 scale
Description: as §1

itchgrass = assay type: in vivo, Rottboellia exaltata; details: 0 to 100 scale
Description: as §1

CCCN1C(=O)COc2cc(F)c(-c3nn4c(c3Cl)CCCC4)cc21 [Compound 32]
Plant response rating, Cmn Purslane (common purslane; POSTEMERGENCE, Rate 125 g/ha): 100
Plant response rating, Cmn Purslane (common purslane; POSTEMERGENCE, Rate 250 g/ha): 80
Plant response rating, Cmn Purslane (common purslane; PREEMERGENCE, Rate 125 g/ha): 0
Plant response rating, Cmn Purslane (common purslane; PREEMERGENCE, Rate 250 g/ha): 100
Plant response rating, Purple Nutsedge (purple nutsedge; POSTEMERGENCE): 10
Plant response rating, Purple Nutsedge (purple nutsedge; PREEMERGENCE): 0
Plant response rating, Alfalfa Var. (alfalfa; POSTEMERGENCE, Rate 125 g/ha): 0
Plant response rating, Alfalfa Var. (alfalfa; POSTEMERGENCE, Rate 250 g/ha): 0
Plant response rating, Alfalfa Var. (alfalfa; PREEMERGENCE, Rate 125 g/ha): 0
Plant response rating, Alfalfa Var. (alfalfa; PREEMERGENCE, Rate 250 g/ha): 0
Plant response rating, Johnsongrass (johnsongrass; POSTEMERGENCE, Rate 125 g/ha): 0
Plant response rating, Johnsongrass (johnsongrass; POSTEMERGENCE, Rate 250 g/ha): 0
Plant response rating, Johnsongrass (johnsongrass; PREEMERGENCE, Rate 125 g/ha): 0
Plant response rating, Johnsongrass (johnsongrass; PREEMERGENCE, Rate 250 g/ha): 0
Plant response rating, Smooth Crabgras (smooth crabgrass; POSTEMERGENCE, Rate 125 g/ha): 0
Plant response rating, Smooth Crabgras (smooth crabgrass; POSTEMERGENCE, Rate 250 g/ha): 0
Plant response rating, Smooth Crabgras (smooth crabgrass; PREEMERGENCE, Rate 125 g/ha): 0
Plant response rating, Smooth Crabgras (smooth crabgrass; PREEMERGENCE, Rate 250 g/ha): 0
Plant response rating, Cmn Ragweed (common ragweed; POSTEMERGENCE, Rate 125 g/ha): 100
Plant response rating, Cmn Ragweed (common ragweed; POSTEMERGENCE, Rate 250 g/ha): 60
Plant response rating, Cmn Ragweed (common ragweed; PREEMERGENCE, Rate 125 g/ha): 0
Plant response rating, Cmn Ragweed (common ragweed; PREEMERGENCE, Rate 250 g/ha): 0
Plant response rating, Yellow Nutsedge (yellow nutsedge; POSTEMERGENCE): 0
Plant response rating, Yellow Nutsedge (yellow nutsedge; PREEMERGENCE): 0
Plant response rating, Brdlf Sgnlgrass (broadleaf signalgrass; POSTEMERGENCE, Rate 125 g/ha): 0
Plant response rating, Brdlf Sgnlgrass (broadleaf signalgrass; POSTEMERGENCE, Rate 250 g/ha): 0
Plant response rating, Brdlf Sgnlgrass (broadleaf signalgrass; PREEMERGENCE, Rate 125 g/ha): 0
Plant response rating, Brdlf Sgnlgrass (broadleaf signalgrass; PREEMERGENCE, Rate 250 g/ha): 0
Plant response rating, Peanuts (peanut; POSTEMERGENCE, Rate 125 g/ha): 0
Plant response rating, Peanuts (peanut; POSTEMERGENCE, Rate 250 g/ha): 0
Plant response rating, Peanuts (peanut; PREEMERGENCE, Rate 125 g/ha): 0
Plant response rating, Peanuts (peanut; PREEMERGENCE, Rate 250 g/ha): 0
Plant response rating, Goosegrass (goosegrass; POSTEMERGENCE, Rate 125 g/ha): 0
Plant response rating, Goosegrass (goosegrass; POSTEMERGENCE, Rate 250 g/ha): 0
Plant response rating, Goosegrass (goosegrass; PREEMERGENCE, Rate 125 g/ha): 0
Plant response rating, Goosegrass (goosegrass; PREEMERGENCE, Rate 250 g/ha): 0
Plant response rating, Ann Bluegrass (annual bluegrass; POSTEMERGENCE, Rate 125 g/ha): 0
Plant response rating, Ann Bluegrass (annual bluegrass; POSTEMERGENCE, Rate 250 g/ha): 0
Plant response rating, Ann Bluegrass (annual bluegrass; PREEMERGENCE, Rate 125 g/ha): 0
Plant response rating, Ann Bluegrass (annual bluegrass; PREEMERGENCE, Rate 250 g/ha): 0
Plant response rating, S. Sandbur (sandbur; POSTEMERGENCE, Rate 125 g/ha): 0
Plant response rating, S. Sandbur (sandbur; POSTEMERGENCE, Rate 250 g/ha): 0
Plant response rating, S. Sandbur (sandbur; PREEMERGENCE, Rate 125 g/ha): 0
Plant response rating, S. Sandbur (sandbur; PREEMERGENCE, Rate 250 g/ha): 0
Plant response rating, Dallisgrass (dallisgrass; POSTEMERGENCE, Rate 125 g/ha): 0
Plant response rating, Dallisgrass (dallisgrass; POSTEMERGENCE, Rate 250 g/ha): 0
Plant response rating, Dallisgrass (dallisgrass; PREEMERGENCE, Rate 125 g/ha): 0
Plant response rating, Dallisgrass (dallisgrass; PREEMERGENCE, Rate 250 g/ha): 0
Plant response rating, Pit Morninglory (pitted morningglory; POSTEMERGENCE, Rate 125 g/ha): 70
Plant response rating, Pit Morninglory (pitted morningglory; POSTEMERGENCE, Rate 250 g/ha): 30
Plant response rating, Pit Morninglory (pitted morningglory; PREEMERGENCE, Rate 125 g/ha): 0
Plant response rating, Pit Morninglory (pitted morningglory; PREEMERGENCE, Rate 250 g/ha): 0
Plant response rating, Guineagrass (guineagrass; POSTEMERGENCE, Rate 125 g/ha): 0
Plant response rating, Guineagrass (guineagrass; POSTEMERGENCE, Rate 250 g/ha): 0
Plant response rating, Guineagrass (guineagrass; PREEMERGENCE, Rate 125 g/ha): 0
Plant response rating, Guineagrass (guineagrass; PREEMERGENCE, Rate 250 g/ha): 0
Plant response rating, Itchgrass (itchgrass; POSTEMERGENCE, Rate 125 g/ha): 0
Plant response rating, Itchgrass (itchgrass; POSTEMERGENCE, Rate 250 g/ha): 0
Plant response rating, Itchgrass (itchgrass; PREEMERGENCE, Rate 125 g/ha): 0
Plant response rating, Itchgrass (itchgrass; PREEMERGENCE, Rate 250 g/ha): 0

CC(C)COc1cc(-c2nn3c(c2Cl)CCCC3)c(F)cc1Cl [Compound 30]
Plant response rating, Cmn Purslane (common purslane; POSTEMERGENCE, Rate 125 g/ha): 70
Plant response rating, Cmn Purslane (common purslane; POSTEMERGENCE, Rate 250 g/ha): 60
Plant response rating, Cmn Purslane (common purslane; PREEMERGENCE, Rate 125 g/ha): 0
Plant response rating, Cmn Purslane (common purslane; PREEMERGENCE, Rate 250 g/ha): 0
Plant response rating, Purple Nutsedge (purple nutsedge; POSTEMERGENCE): 0
Plant response rating, Purple Nutsedge (purple nutsedge; PREEMERGENCE): 0
Plant response rating, Alfalfa Var. (alfalfa; POSTEMERGENCE, Rate 125 g/ha): 0
Plant response rating, Alfalfa Var. (alfalfa; POSTEMERGENCE, Rate 250 g/ha): 0
Plant response rating, Alfalfa Var. (alfalfa; PREEMERGENCE, Rate 125 g/ha): 0
Plant response rating, Alfalfa Var. (alfalfa; PREEMERGENCE, Rate 250 g/ha): 0
Plant response rating, Johnsongrass (johnsongrass; POSTEMERGENCE, Rate 125 g/ha): 0
Plant response rating, Johnsongrass (johnsongrass; POSTEMERGENCE, Rate 250 g/ha): 0
Plant response rating, Johnsongrass (johnsongrass; PREEMERGENCE, Rate 125 g/ha): 0
Plant response rating, Johnsongrass (johnsongrass; PREEMERGENCE, Rate 250 g/ha): 0
Plant response rating, Smooth Crabgras (smooth crabgrass; POSTEMERGENCE, Rate 125 g/ha): 0
Plant response rating, Smooth Crabgras (smooth crabgrass; POSTEMERGENCE, Rate 250 g/ha): 0
Plant response rating, Smooth Crabgras (smooth crabgrass; PREEMERGENCE, Rate 125 g/ha): 0
Plant response rating, Smooth Crabgras (smooth crabgrass; PREEMERGENCE, Rate 250 g/ha): 0
Plant response rating, Cmn Ragweed (common ragweed; POSTEMERGENCE, Rate 125 g/ha): 40
Plant response rating, Cmn Ragweed (common ragweed; POSTEMERGENCE, Rate 250 g/ha): 0
Plant response rating, Cmn Ragweed (common ragweed; PREEMERGENCE, Rate 125 g/ha): 0
Plant response rating, Cmn Ragweed (common ragweed; PREEMERGENCE, Rate 250 g/ha): 0
Plant response rating, Yellow Nutsedge (yellow nutsedge; POSTEMERGENCE): 0
Plant response rating, Yellow Nutsedge (yellow nutsedge; PREEMERGENCE): 0
Plant response rating, Brdlf Sgnlgrass (broadleaf signalgrass; POSTEMERGENCE, Rate 125 g/ha): 0
Plant response rating, Brdlf Sgnlgrass (broadleaf signalgrass; POSTEMERGENCE, Rate 250 g/ha): 0
Plant response rating, Brdlf Sgnlgrass (broadleaf signalgrass; PREEMERGENCE, Rate 125 g/ha): 0
Plant response rating, Brdlf Sgnlgrass (broadleaf signalgrass; PREEMERGENCE, Rate 250 g/ha): 0
Plant response rating, Peanuts (peanut; POSTEMERGENCE, Rate 125 g/ha): 0
Plant response rating, Peanuts (peanut; POSTEMERGENCE, Rate 250 g/ha): 0
Plant response rating, Peanuts (peanut; PREEMERGENCE, Rate 125 g/ha): 0
Plant response rating, Peanuts (peanut; PREEMERGENCE, Rate 250 g/ha): 0
Plant response rating, Goosegrass (goosegrass; POSTEMERGENCE, Rate 125 g/ha): 0
Plant response rating, Goosegrass (goosegrass; POSTEMERGENCE, Rate 250 g/ha): 0
Plant response rating, Goosegrass (goosegrass; PREEMERGENCE, Rate 125 g/ha): 0
Plant response rating, Goosegrass (goosegrass; PREEMERGENCE, Rate 250 g/ha): 30
Plant response rating, Ann Bluegrass (annual bluegrass; POSTEMERGENCE, Rate 125 g/ha): 0
Plant response rating, Ann Bluegrass (annual bluegrass; POSTEMERGENCE, Rate 250 g/ha): 0
Plant response rating, Ann Bluegrass (annual bluegrass; PREEMERGENCE, Rate 125 g/ha): 0
Plant response rating, Ann Bluegrass (annual bluegrass; PREEMERGENCE, Rate 250 g/ha): 0
Plant response rating, S. Sandbur (sandbur; POSTEMERGENCE, Rate 125 g/ha): 0
Plant response rating, S. Sandbur (sandbur; POSTEMERGENCE, Rate 250 g/ha): 0
Plant response rating, S. Sandbur (sandbur; PREEMERGENCE, Rate 125 g/ha): 0
Plant response rating, S. Sandbur (sandbur; PREEMERGENCE, Rate 250 g/ha): 0
Plant response rating, Dallisgrass (dallisgrass; POSTEMERGENCE, Rate 125 g/ha): 0
Plant response rating, Dallisgrass (dallisgrass; POSTEMERGENCE, Rate 250 g/ha): 0
Plant response rating, Dallisgrass (dallisgrass; PREEMERGENCE, Rate 125 g/ha): 0
Plant response rating, Dallisgrass (dallisgrass; PREEMERGENCE, Rate 250 g/ha): 0
Plant response rating, Pit Morninglory (pitted morningglory; POSTEMERGENCE, Rate 125 g/ha): 0
Plant response rating, Pit Morninglory (pitted morningglory; POSTEMERGENCE, Rate 250 g/ha): 20
Plant response rating, Pit Morninglory (pitted morningglory; PREEMERGENCE, Rate 125 g/ha): 0
Plant response rating, Pit Morninglory (pitted morningglory; PREEMERGENCE, Rate 250 g/ha): 0
Plant response rating, Guineagrass (guineagrass; POSTEMERGENCE, Rate 125 g/ha): 0
Plant response rating, Guineagrass (guineagrass; POSTEMERGENCE, Rate 250 g/ha): 0
Plant response rating, Guineagrass (guineagrass; PREEMERGENCE, Rate 125 g/ha): 0
Plant response rating, Guineagrass (guineagrass; PREEMERGENCE, Rate 250 g/ha): 0
Plant response rating, Itchgrass (itchgrass; POSTEMERGENCE, Rate 125 g/ha): 0
Plant response rating, Itchgrass (itchgrass; POSTEMERGENCE, Rate 250 g/ha): 0
Plant response rating, Itchgrass (itchgrass; PREEMERGENCE, Rate 125 g/ha): 0
Plant response rating, Itchgrass (itchgrass; PREEMERGENCE, Rate 250 g/ha): 0
